# Measured values: patent US20230085307A1, “PYRIDAZINONE COMPOUND AND HERBICIDE” (NISSAN CHEMICAL CORPORATION, priority 2019, published 2023)
# Experiments:
# Chinese sprangletop = test: Test Example 3: herbicidal effect by foliage application, Wagner pot (Table 18, symbol D); assay type: in vivo, chinese sprangletop (Leptochloa chinensis)
# In short: (§1)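 Plants were sown in alluvial soil held under 0.1–0.5 cm standing water and grown 14 days in a greenhouse at 25–30 °C. An emulsifiable formulation, water-diluted to the set dose, was then sprayed onto the foliage, and effects were scored three weeks later using previously defined criteria.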
# Italian ryegrass [1] = test: Test Example 5: herbicidal effect by foliage application, plastic box (Table 20, symbol K); assay type: in vivo, Italian ryegrass (Lolium multiflorum); conditions: foliage application, 320 g/ha, three weeks after application
# In short: (§2)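 Post-emergence foliar test in sterilized diluvial soil. Compound applied as water-diluted emulsion at a predetermined rate to 14-day-old plants; evaluation at three weeks.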
# redroot pigweed [2] = test: Test Example 4: herbicidal effect by soil treatment (Table 19, symbol N); assay type: in vivo, redroot pigweed (Amaranthus retroflexus); conditions: amount of applied herbicide 320 g/ha
# In short: (§3)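 Emulsion of test compound, water-diluted to predetermined amount, sprayed on soil after sowing (seed depth ~1.5 cm, sterilized diluvial soil). Greenhouse, 25–30° C. Effect graded at three weeks post-spray.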
# rice flat sedge = test: Test Example 3: herbicidal effect by foliage application, Wagner pot (Table 18, symbol E); assay type: in vivo, rice flat sedge (Cyperus iria)
# In short: as §1
# blackgrass [3] = test: Test Example 5: herbicidal effect by foliage application, plastic box (Table 20, symbol J); assay type: in vivo, blackgrass (Alopecurus myosuroides); conditions: foliage application, 320 g/ha, three weeks after application
# In short: as §2
# persian speedwell [4] = test: Test Example 4: herbicidal effect by soil treatment (Table 19, symbol R); assay type: in vivo, Persian speedwell (Veronica persica); conditions: amount of applied herbicide 320 g/ha
# In short: as §3
# wild oat [5] = test: Test Example 5: herbicidal effect by foliage application, plastic box (Table 20, symbol I); assay type: in vivo, wild oat (Avena fatua); conditions: foliage application, 320 g/ha, three weeks after application
# In short: as §2
# redroot pigweed [6] = test: Test Example 5: herbicidal effect by foliage application, plastic box (Table 20, symbol N); assay type: in vivo, redroot pigweed (Amaranthus retroflexus); conditions: foliage application, 320 g/ha, three weeks after application
# In short: as §2
# velvetleaf [7] = test: Test Example 4: herbicidal effect by soil treatment (Table 19, symbol M); assay type: in vivo, velvetleaf (Abutilon theophrasti); conditions: amount of applied herbicide 320 g/ha
# In short: as §3
# wild oat [8] = test: Test Example 4: herbicidal effect by soil treatment (Table 19, symbol I); assay type: in vivo, wild oat (Avena fatua); conditions: amount of applied herbicide 320 g/ha
# In short: as §3
# late watergrass = test: Test Example 1: herbicidal activity, application before weed generation under submerged conditions (Table 16, symbol A); assay type: in vivo, late watergrass (Echinochloa oryzicola); conditions: amount of applied herbicide 320 g/ha
# In short: (§4)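 Submerged Wagner pots (alluvial soil, 4 cm water) sown with weed seeds and planted with 2.5-leaf rice seedlings; emulsifiable concentrate diluted in water applied to water surface on sowing day. Held in greenhouse at 25-30 °C; injury scored 0-5 by herbicidal rate after three weeks.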
# windgrass [9] = test: Test Example 4: herbicidal effect by soil treatment (Table 19, symbol L); assay type: in vivo, windgrass (Apera spica-venti); conditions: amount of applied herbicide 320 g/ha
# In short: as §3
# false cleavers = test: Test Example 4: herbicidal effect by soil treatment (Table 19, symbol Q); assay type: in vivo, false cleavers (Galium spurium); conditions: amount of applied herbicide 320 g/ha
# In short: as §3
# Japanese bulrush = test: Test Example 1: herbicidal activity, application before weed generation under submerged conditions (Table 16, symbol B); assay type: in vivo, Japanese bulrush (Schoenoplectus juncoides); conditions: amount of applied herbicide 320 g/ha
# In short: as §4
# velvetleaf [10] = test: Test Example 5: herbicidal effect by foliage application, plastic box (Table 20, symbol M); assay type: in vivo, velvetleaf (Abutilon theophrasti); conditions: foliage application, 320 g/ha, three weeks after application
# In short: as §2
# southern crabgrass [11] = test: Test Example 5: herbicidal effect by foliage application, plastic box (Table 20, symbol F); assay type: in vivo, southern crabgrass (Digitaria ciliaris); conditions: foliage application, 320 g/ha, three weeks after application
# In short: as §2
# southern crabgrass [12] = test: Test Example 4: herbicidal effect by soil treatment (Table 19, symbol F); assay type: in vivo, southern crabgrass (Digitaria ciliaris); conditions: amount of applied herbicide 320 g/ha
# In short: as §3
# barnyard grass [13] = test: Test Example 3: herbicidal effect by foliage application, Wagner pot (Table 18, symbol H); assay type: in vivo, barnyard grass (Echinochloa crus-galli)
# In short: as §1
# lambsquarters [14] = test: Test Example 5: herbicidal effect by foliage application, plastic box (Table 20, symbol O); assay type: in vivo, lambsquarters (Chenopodium album); conditions: foliage application, 320 g/ha, three weeks after application
# In short: as §2
# Italian ryegrass [15] = test: Test Example 4: herbicidal effect by soil treatment (Table 19, symbol K); assay type: in vivo, Italian ryegrass (Lolium multiflorum); conditions: amount of applied herbicide 320 g/ha
# In short: as §3
# barnyard grass [16] = test: Test Example 4: herbicidal effect by soil treatment (Table 19, symbol H); assay type: in vivo, barnyard grass (Echinochloa crus-galli); conditions: amount of applied herbicide 320 g/ha
# In short: as §3
# lambsquarters [17] = test: Test Example 4: herbicidal effect by soil treatment (Table 19, symbol O); assay type: in vivo, lambsquarters (Chenopodium album); conditions: amount of applied herbicide 320 g/ha
# In short: as §3
# windgrass [18] = test: Test Example 5: herbicidal effect by foliage application, plastic box (Table 20, symbol L); assay type: in vivo, windgrass (Apera spica-venti); conditions: foliage application, 320 g/ha, three weeks after application
# In short: as §2
# green foxtail [19] = test: Test Example 5: herbicidal effect by foliage application, plastic box (Table 20, symbol G); assay type: in vivo, green foxtail (Setaria viridis); conditions: foliage application, 320 g/ha, three weeks after application
# In short: as §2
# blackgrass [20] = test: Test Example 4: herbicidal effect by soil treatment (Table 19, symbol J); assay type: in vivo, blackgrass (Alopecurus myosuroides); conditions: amount of applied herbicide 320 g/ha
# In short: as §3
# oval-leafed pondweed = test: Test Example 1: herbicidal activity, application before weed generation under submerged conditions (Table 16, symbol C); assay type: in vivo, oval-leafed pondweed (Monochoria vaginalis); conditions: amount of applied herbicide 320 g/ha
# In short: as §4
# barnyard grass [21] = test: Test Example 5: herbicidal effect by foliage application, plastic box (Table 20, symbol H); assay type: in vivo, barnyard grass (Echinochloa crus-galli); conditions: foliage application, 320 g/ha, three weeks after application
# In short: as §2
# persian speedwell [22] = test: Test Example 5: herbicidal effect by foliage application, plastic box (Table 20, symbol R); assay type: in vivo, Persian speedwell (Veronica persica); conditions: foliage application, 320 g/ha, three weeks after application
# In short: as §2
# green foxtail [23] = test: Test Example 4: herbicidal effect by soil treatment (Table 19, symbol G); assay type: in vivo, green foxtail (Setaria viridis); conditions: amount of applied herbicide 320 g/ha
# In short: as §3
# chickweed [24] = test: Test Example 5: herbicidal effect by foliage application, plastic box (Table 20, symbol P); assay type: in vivo, common chickweed (Stellaria media); conditions: foliage application, 320 g/ha, three weeks after application
# In short: as §2
# chickweed [25] = test: Test Example 4: herbicidal effect by soil treatment (Table 19, symbol P); assay type: in vivo, common chickweed (Stellaria media); conditions: amount of applied herbicide 320 g/ha
# In short: as §3
# [26] = amount of applied herbicide 320 g/ha
smiles,measurement,setting,value
Cc1nn(CC#N)c(=O)c(-c2c(-c3ccc(F)cc3)sc3ccc(F)cc23)c1O [2-430],herbicidal effect on D: Chinese sprangletop,Chinese sprangletop; [26],0 (Herbicidal rate of 5% or less (almost no effect))
same,"K: Italian ryegrass, herbicidal effect grade",Italian ryegrass [1],3 (Herbicidal rate of 40% or more and less than 70%)
same,"herbicidal effect, N: redroot pigweed",redroot pigweed [2],5 (Herbicidal rate of 90% or more (almost completely withered))
same,herbicidal effect on E: rice flat sedge,rice flat sedge; [26],3 (Herbicidal rate of 40% or more and less than 70%)
same,"J: blackgrass, herbicidal effect grade",blackgrass [3],0 (Herbicidal rate of 5% or less (almost no effect))
same,"herbicidal effect, R: persian speedwell",persian speedwell [4],0 (Herbicidal rate of 5% or less (almost no effect))
same,"I: wild oat, herbicidal effect grade",wild oat [5],0 (Herbicidal rate of 5% or less (almost no effect))
same,"N: redroot pigweed, herbicidal effect grade",redroot pigweed [6],3 (Herbicidal rate of 40% or more and less than 70%)
same,"herbicidal effect, M: velvetleaf",velvetleaf [7],2 (Herbicidal rate of 20% or more and less than 40%)
same,"herbicidal effect, I: wild oat",wild oat [8],0 (Herbicidal rate of 5% or less (almost no effect))
same,"Herbicidal effect, A: late watergrass",late watergrass,3 (Herbicidal rate of 40% or more and less than 70%)
same,"herbicidal effect, L: windgrass",windgrass [9],0 (Herbicidal rate of 5% or less (almost no effect))
same,"herbicidal effect, Q: false cleavers",false cleavers,0 (Herbicidal rate of 5% or less (almost no effect))
same,"Herbicidal effect, B: Japanese bulrush",Japanese bulrush,0 (Herbicidal rate of 5% or less (almost no effect))
same,"M: velvetleaf, herbicidal effect grade",velvetleaf [10],2 (Herbicidal rate of 20% or more and less than 40%)
same,"F: southern crabgrass, herbicidal effect grade",southern crabgrass [11],0 (Herbicidal rate of 5% or less (almost no effect))
same,"herbicidal effect, F: southern crabgrass",southern crabgrass [12],0 (Herbicidal rate of 5% or less (almost no effect))
same,herbicidal effect on H: barnyard grass,barnyard grass [13]; [26],2 (Herbicidal rate of 20% or more and less than 40%)
same,"O: lambsquarters, herbicidal effect grade",lambsquarters [14],3 (Herbicidal rate of 40% or more and less than 70%)
same,"herbicidal effect, K: Italian ryegrass",Italian ryegrass [15],0 (Herbicidal rate of 5% or less (almost no effect))
same,"herbicidal effect, H: barnyard grass",barnyard grass [16],0 (Herbicidal rate of 5% or less (almost no effect))
same,"herbicidal effect, O: lambsquarters",lambsquarters [17],1 (Herbicidal rate of 5% or more and less than 20%)
same,"L: windgrass, herbicidal effect grade",windgrass [18],0 (Herbicidal rate of 5% or less (almost no effect))
same,"G: green foxtail, herbicidal effect grade",green foxtail [19],2 (Herbicidal rate of 20% or more and less than 40%)
same,"herbicidal effect, J: blackgrass",blackgrass [20],0 (Herbicidal rate of 5% or less (almost no effect))
same,"Herbicidal effect, C: oval-leafed pondweed",oval-leafed pondweed,0 (Herbicidal rate of 5% or less (almost no effect))
same,"H: barnyard grass, herbicidal effect grade",barnyard grass [21],1 (Herbicidal rate of 5% or more and less than 20%)
same,"R: persian speedwell, herbicidal effect grade",persian speedwell [22],4 (Herbicidal rate of 70% or more and less than 90%)
same,"herbicidal effect, G: green foxtail",green foxtail [23],0 (Herbicidal rate of 5% or less (almost no effect))
same,"P: chickweed, herbicidal effect grade",chickweed [24],5 (Herbicidal rate of 90% or more (almost completely withered))
CCCC(=O)Oc1c(C)nn(C)c(=O)c1-c1c(-c2ccc(F)cc2OC)sc2cc(OC)c(OC)cc12 [5-061],herbicidal effect on Chinese sprangletop (D),Chinese sprangletop; 320 g/ha,3 (Herbicidal rate of 40% or more and less than 70%)
same,herbicidal effect on Italian ryegrass (K),Italian ryegrass [1],4 (Herbicidal rate of 70% or more and less than 90%)
same,"N: redroot pigweed, herbicidal effect grade",redroot pigweed [2],0 (Herbicidal rate of 5% or less (almost no effect))
same,herbicidal effect on rice flat sedge (E),rice flat sedge; 320 g/ha,4 (Herbicidal rate of 70% or more and less than 90%)
same,herbicidal effect on blackgrass (J),blackgrass [3],4 (Herbicidal rate of 70% or more and less than 90%)
same,"R: persian speedwell, herbicidal effect grade",persian speedwell [4],2 (Herbicidal rate of 20% or more and less than 40%)
same,herbicidal effect on wild oat (I),wild oat [5],4 (Herbicidal rate of 70% or more and less than 90%)
same,"M: velvetleaf, herbicidal effect grade",velvetleaf [7],0 (Herbicidal rate of 5% or less (almost no effect))
same,"I: wild oat, herbicidal effect grade",wild oat [8],0 (Herbicidal rate of 5% or less (almost no effect))
same,"Herbicidal effect, A: late watergrass",late watergrass,5 (Herbicidal rate of 90% or more (almost completely withered))
same,"L: windgrass, herbicidal effect grade",windgrass [9],0 (Herbicidal rate of 5% or less (almost no effect))
same,"Q: false cleavers, herbicidal effect grade",false cleavers,0 (Herbicidal rate of 5% or less (almost no effect))
same,"Herbicidal effect, B: Japanese bulrush",Japanese bulrush,3 (Herbicidal rate of 40% or more and less than 70%)
same,herbicidal effect on velvetleaf (M),velvetleaf [10],0 (Herbicidal rate of 5% or less (almost no effect))
same,herbicidal effect on southern crabgrass (F),southern crabgrass [11],4 (Herbicidal rate of 70% or more and less than 90%)
same,"F: southern crabgrass, herbicidal effect grade",southern crabgrass [12],0 (Herbicidal rate of 5% or less (almost no effect))
same,herbicidal effect on barnyard grass (H),barnyard grass [13]; 320 g/ha,5 (Herbicidal rate of 90% or more (almost completely withered))
same,herbicidal effect on lambsquarters (O),lambsquarters [14],3 (Herbicidal rate of 40% or more and less than 70%)
same,"K: Italian ryegrass, herbicidal effect grade",Italian ryegrass [15],0 (Herbicidal rate of 5% or less (almost no effect))
same,"H: barnyard grass, herbicidal effect grade",barnyard grass [16],0 (Herbicidal rate of 5% or less (almost no effect))
same,"O: lambsquarters, herbicidal effect grade",lambsquarters [17],0 (Herbicidal rate of 5% or less (almost no effect))
same,"P: chickweed, herbicidal effect grade",chickweed [25],3 (Herbicidal rate of 40% or more and less than 70%)
same,herbicidal effect on windgrass (L),windgrass [18],2 (Herbicidal rate of 20% or more and less than 40%)
same,herbicidal effect on green foxtail (G),green foxtail [19],4 (Herbicidal rate of 70% or more and less than 90%)
same,"J: blackgrass, herbicidal effect grade",blackgrass [20],0 (Herbicidal rate of 5% or less (almost no effect))
same,"Herbicidal effect, C: oval-leafed pondweed",oval-leafed pondweed,3 (Herbicidal rate of 40% or more and less than 70%)
same,herbicidal effect on barnyard grass (H),barnyard grass [21],4 (Herbicidal rate of 70% or more and less than 90%)
same,herbicidal effect on persian speedwell (R),persian speedwell [22],5 (Herbicidal rate of 90% or more (almost completely withered))
same,"G: green foxtail, herbicidal effect grade",green foxtail [23],0 (Herbicidal rate of 5% or less (almost no effect))
